≈ marks a conversion by molar mass, not a printed value.
Tests used:
[1] = Protein binding in Swiss mouse plasma at 10 mg/kg, po administered as single dose via gavage measured over 24 hrs by LC-MS analysis; assay type: ADME, organism-based; settings: read-out: PPB (converted)
[2] = system: Plasmodium falciparum; test: Antiplasmodial activity against Plasmodium falciparum 3D7 infected in po dosed NSG mouse assessed as blood AUC level require to show 90% reduction in parasitemia administered once daily for 4 consecutive days starting from day 3 post-infection and measured 24 hrs post last dose by flow cytometric analysis; assay type: functional, organism-based; settings: time 4.0 day
[3] = Protein binding in mouse plasma assessed as bound fraction by LC-MS analysis based ultracentrifugation assay; assay type: ADME, cell-free; settings: read-out: PPB (converted)
[4] = Intrinsic clearance in mouse liver microsomes at 1 uM by LC-MS analysis; assay type: ADME, Microsome
[5] = Intrinsic clearance in rat liver microsomes assessed per mg protein at 1 uM by LC-MS analysis; assay type: ADME, Microsome; settings: rat liver microsomes, read-out: CLH
[6] = AUC (0 to infinity) in Sprague-Dawley rat at […], iv by LC-MS analysis; assay type: ADME, organism-based; design: time infinity, route intravenous, dose 2.6 mg/kg; settings: in vivo
[7] = Unbound Cmax in Sprague-Dawley rat at 18.8 mg/kg, po by LC-MS analysis; assay type: ADME, organism-based; settings: in vivo
[8] = Unbound AUC (0 to infinity) in Sprague-Dawley rat at 18.8 mg/kg, po by LC-MS analysis; assay type: ADME, organism-based; settings: in vivo
[9] = Unbound AUC (0 to infinity) in Sprague-Dawley rat at […], iv by LC-MS analysis; assay type: ADME, organism-based; settings: in vivo, dose 2.6 mg/kg
[10] = Unbound AUC (0 to infinity) in Swiss mouse at 10 mg/kg, po by LC-MS analysis; assay type: ADME, organism-based; settings: in vivo
[11] = Solubility of compound in 0.1 N HCl measured after 5 to 6 hrs by HPLC-UV based analysis; assay type: physicochemical; settings: buffer; time 5-6 hrs
[12] = Unbound Cmax in Swiss mouse at 10 mg/kg, po by LC-MS analysis; assay type: ADME, organism-based; settings: in vivo
[13] = Unbound Clearance in Sprague-Dawley rat at […], iv by LC-MS analysis; assay type: ADME, organism-based; settings: in vivo, dose 2.6 mg/kg
[14] = Protein binding in Sprague-Dawley rat plasma at […], iv administered as infusion for 10 mins by LC-MS analysis; assay type: ADME, organism-based; settings: dose 2.6 mg/kg, read-out: PPB (converted)
[15] = Protein binding in rat plasma assessed as bound fraction by LC-MS analysis based ultracentrifugation assay; assay type: ADME, cell-free; settings: read-out: PPB (converted)
[16] = system: Plasmodium falciparum; test: Antiplasmodial activity against Plasmodium falciparum 3D7 infected in po dosed NSG mouse assessed as reduction in parasitemia administered twice daily for 4 consecutive days starting from day 3 post-infection and measured 24 hrs post last dose by flow cytometric analysis; assay type: functional; settings: 3D7, po, 96 h, time 4 day
[17] = Intrinsic clearance in human pooled liver microsomes assessed per mg protein at 1 uM by LC-MS analysis; assay type: ADME, Microsome; settings: pooled human liver microsomes
[18] = system: Plasmodium falciparum; test: Antiplasmodial activity against Plasmodium falciparum 3D7 infected in RBC assessed as reduction in parasitemia incubated for 72 hrs by SYBR green dye-based assay; assay type: functional, organism-based; settings: Plasmodium falciparum, 3D7, Erythrocyte, 72 h
[19] = Unbound volume of distribution at steady state in Sprague-Dawley rat at […], iv by LC-MS analysis; assay type: ADME, organism-based; settings: in vivo, dose 2.6 mg/kg

Cc1cc(Nc2ccc(S(F)(F)(F)(F)F)cc2)n2nc(C(C)(F)F)nc2n1 [DSM-265] gave a fraction unbound at 24 h [1] of 0.003, an AUCED90 [2] of 30.8 µM.hr/day and a fraction unbound [3] of 0.003. It also gave an intrinsic clearance [4] of 2.8 µL/min, a microsomal CLint at 1 µM [5] of 1.8 µL/min/mg and an AUC(0-inf) [6] of 17.4 µM·h. For the same molecule, the fCmax [7] was 0.09 µM, the fAUC [8] was 2.8 µM·h and the fAUC [9] was 0.4 µM·h. For the same molecule, the fAUC [10] was 0.07 µM·h, the solubility [11] was 6.8 µg/mL (≈ 16.4 µM) and the fCmax [12] was 0.01 µM. For the same molecule, the CL free [13] was 263 mL/min/kg, the fraction unbound at 10 min [14] was 0.023 and the fraction unbound [15] was 0.023. For the same molecule, the ED90 [16] was 3 mg/kg, the microsomal CLint at 1 µM [17] was 4.3 µL/min/mg and the EC50 [18] was 4.3 nM. For the same molecule, the fVdss [19] was 257 L/kg.
